The text below walks through data of paper PMC9645390, “Amphiphilic stilbene derivatives attenuate the neurotoxicity of soluble Aβ42 oligomers by controlling their interactions with cell membranes” (Chemical Science, 2022).

One data set deals with Aβ oligomers. The conditions noted are these: read-out: Kd, oligomer-selective probe; cited from earlier work.
A short description of data set [1]: Log D by octanol-PBS partition assay. The class given is physicochemical. As to conditions: pH 7.4, fluorescence readout. The protocol:
In order to confirm that the compounds can also bind to native Aβ species, brain sections collected from 9-month-old 5xFAD transgenic mice have been employed in the fluorescence imaging studies. […] The brain sections were first incubated with our compounds, followed by Congo Red (CR), which is a well-established fluorescent probe that can bind to Aβ plaques.[34] The treated brain sections were then imaged using fluorescence microscope. […] Immunostaining with the CF594-conjugated HJ 3.4 antibody (CF594-HJ3.4) was also performed to confirm that these six compounds can bind to Aβ species specifically in the brain sections (Fig. 5). Moreover, the log D values of the compounds were also measured by octanol-PBS partition assays.[35] […]
The Log D value was measured following a published procedure using slight modifications.4 In general, compounds in 0.5 mL octanol was subjected to partition with 0.5 mL octanol-saturated
PBS. The whole mixture was stirred vigorously for 5 min, and centrifuged at 2,000 rpm for 5 min.
The top octanol layer was separated for later fluorescence measurement. The remaining PBS layer was partitioned with 0.5 mL PBS-saturated octanol, and the second top octanol layer was then separated after vigorous stirring and centrifuging at 2,000 rpm for another 5 min. The two octanol layers’ fluorescence spectra were recorded. The log D value was calculated by the fluorescence intensity ratio at the compounds’ emission wavelength for the above two octanol extractions. […]

In a further data set the target is T1, Aβ42 fibrils (Homo sapiens, UniProt P05067).
T1 construct: 1 mg of commercial Aβ42 monomer powder (from GL biochem) was dissolved in 1; purchased GL biochem
Kind of data set: Fluorescence saturation binding assay with Aβ42 fibrils. The conditions noted are these: Aβ42 fibrils. The protocol: (§1) Fig. 3 Binding constant measurements of ZY-5-OMe (left), ZY-5-MT (middle), ZY-5-DT (right) with Aβ42 fibrils (top), and oligomers (bottom). The measurements were performed in 10 mM phosphate buffered saline (PBS), pH 7.4. The Kd curves were fitted in GraphPad Prism with one site-specific binding model. Equation: Y = Bmax × X/(Kd + X). [Aβ42 fibrils] = [Aβ42 oligomers] = 5 μM.
(§2) Preparation of the Aβ42 Fibrils and Aβ42 Oligomers
(§3) Aβ42 fibrils: 1 mg of commercial Aβ42 monomer powder (from GL biochem) was dissolved in 1
(§4) mL 1,1,1,3,3,3-hexafluoro-2-propanol (HFIP) at room temperature and incubated for 1h. The
(§5) resulting solution was divided equally into two Eppendorf tubes. The solution in each Eppendorf
(§6) tube containing 0.5 mg Aβ42 monomer was then evaporated overnight and dried by vacuum
(§7) centrifuge to generate monomeric films. 100 μM Aβ42 fibrils solution was prepared by dissolving
(§8) the 0.5 mg monomeric films in 1.1 mL PBS buffer (with final DMSO concentration less than 1%)
(§9) and stiring at 37 °C for 3 days.
(§10) Aβ42 oligomers: The 0.5 mg monomeric films were dissolved in 1.1 mL PBS buffer (with final
(§11) DMSO concentration less than 1%) and incubated at 4 °C overnight. The resulting solution was
(§12) then centrifuged at 3000 rpm for 15 mins to remove the insoluble aggregates. The clear supernatant
(§13) was then used for the following experiments. […]
(§14) In Vitro Saturation Binding Studies with Aβ42 Fibrils and Aβ42 Oligomers
(§15) To a solution of increasing concentrations of compounds, a fixed concentration of the generated
(§16) aggregated Aβ42 fibrils or Aβ42 oligomers solutions (5 to 15 μM) was added to yield a total volume
(§17) of 100 μL. Nonspecific binding was determined without compounds. The mixture was incubated
(§18) for 15 min at room temperature. All fluorescence data were obtained on a SpectraMax M2e plate
(§19) reader (Molecular Devices).

In another data set the target is T2, Aβ42 oligomers (Homo sapiens, UniProt P05067).
T2 construct: 1 mg of commercial Aβ42 monomer powder (from GL biochem) was dissolved in 1; purchased GL biochem
Kind of data set: Fluorescence saturation binding assay with Aβ42 oligomers. The protocol:
as §1, §2, §3, §4, §5, §6, §7, §8, §9, §10, §11, §12, §13, §14, §15, §16, §17, §18, §19

Data set [2] is described as follows: Alamar Blue cytotoxicity assay in N2a cells. It is filed as cell-based, mouse. As to conditions: mouse, N2a (Neuro2A) neuroblastoma cells, 40 h, read-out: cell viability. The protocol:
(§20) After confirming these amphiphilic compounds can bind to Aβ species both in vitro and ex vivo, we next investigated whether these compounds could attenuate the toxicity of the Cu–Aβ species, as the Cu^2+ ions were reported to promote the formation of neurotoxic soluble Aβ42 oligomers.[45,46] Firstly, the Alamar Blue cell viability assay was used to measure the cytotoxicity of the compounds at different concentrations ranging from 20 μM to 2 μM in mouse neuroblastoma N2a cells (Fig. 8). […] Considering its high binding affinity to both Aβ fibrils and oligomers, we also further tested its ability to alleviate Cu^2+–Aβ42-induced toxicity. […] The underlying mechanism is unclear, but we propose that these compounds might perform similarly to the toxic oligomers that bind to some cell membrane receptors or insert into the membrane lipids to form porous channels.
(§21) Alamar Blue assay was chosen for the cytotoxicity studies.3 Mouse neuroblastoma Neuro2A (N2A) cells were grown with DMEM/10% FBS in a petri dish at 37 °C in a humidified atmosphere with 5% CO2. Then N2A cells were seeded in a 96-well plate (1.0 × 10^4/well). After 24 h incubation, cell media was changed to DMEM/N-2, and N2A cells were incubated for another 1 h. Then the cells were treated with different concentrations of compounds for 40 h, Alamar Blue solution (10 μL) was added, and the cells were incubated for another 90 min at 37 °C. The fluorescence intensity of each well was measured at 590 nm (excitation wavelength = 560 nm).
(§22) For the Cu2+-Aβ-induced toxicity studies, cells were treated monomeric Aβ42, Cu2+, monomeric Aβ42 + Cu2+, and monomeric Aβ42 + Cu2+ + compounds, monomeric Aβ42 + Cu2+ + copper chelators (Me2HTACN or Me3TACN), respectively. After 40 h incubation, Alamar Blue solution (10 μL) was added, and the cells were incubated for another 90 min at 37 °C. The fluorescence intensity of each well was measured at 590 nm (excitation wavelength = 560 nm). […]

Data set [3] concerns mouse neuroblastoma N2a cells. The data set is described as follows: Alamar Blue cytotoxicity assay in N2a cells. It is filed as cell-based. As to conditions: 2 to 20 μM. The protocol:
as §20, §21, §22
Background: Alamar Blue is a resazurin reagent that responds to reducing activity.

The target of data set [4] is T3, Aβ plaques in 5xFAD mice brain sections (Homo sapiens, UniProt P05067).
T3 construct: aggregated Aβ species were commonly observed in brain sections from 5xFAD transgenic mice; tissue Jackson Laboratories; host or cells: brain sections of 9-month-old 5xFAD transgenic mice
The data set is described as follows: Fluorescence imaging of 5xFAD mouse brain sections, colocalization with Congo Red. The conditions noted are these: 9-month-old 5xFAD brain sections; compound 5 μM, Congo red 2.5 μM. The protocol:
In order to confirm that the compounds can also bind to native Aβ species, brain sections collected from 9-month-old 5xFAD transgenic mice have been employed in the fluorescence imaging studies. […] The brain sections were first incubated with our compounds, followed by Congo Red (CR), which is a well-established fluorescent probe that can bind to Aβ plaques.[34] The treated brain sections were then imaged using fluorescence microscope. […] Immunostaining with the CF594-conjugated HJ 3.4 antibody (CF594-HJ3.4) was also performed to confirm that these six compounds can bind to Aβ species specifically in the brain sections (Fig. 5). Moreover, the log D values of the compounds were also measured by octanol-PBS partition assays.[35]
Fig. 4 Fluorescence microscopy images of 5xFAD mice brain sections co-incubated with amphiphilic compounds (top), Congo red (middle) and merged images (bottom, along with the Parson's correlation coefficients R). Concentrations: [amphiphilic compounds] = 5 μM, [Congo red] = 2.5 μM; scale bar: 125 μm. TEXT PRINTED IN THE PICTURE: ZY-5-MT: Merged R= 0.84 | ZY-12-DT: Merged R= 0.52 | ZY-12-OMe: Merged R= 0.77 | ZY-15-OMe: Merged R= 0.77 | ZY-17-DT: Merged R= 0.77 | ZY-17-OMe: Merged R= 0.72 […]
Histological Staining of 5×FAD Mice Brain Sections
5xFAD transgenic mice brain sections were blocked with bovine serum albumin (2% BSA in PBS, pH 7.4, 10 min). Then the mice brain sections were transferred to a PBS solution of the compound and incubated for 1 h. After which, the brain sections were transferred to a PBS solution of Congo Red or antibody HJ 3.4 (Professor David Holtzman, 1 μg/ml) and incubated for another 1 h. Then, the brain sections were treated with BSA again (5 min) followed by washing with PBS (3 × 2 min), DI water (3 × 2 min). Finally, the mice brain sections were mounted with non-fluorescent mounting media, and the images were obtained by using EVOS FL Auto 2. ImageJ Fiji program was used for colocalization analysis and determination of the Pearson’s correlation coefficient. The primary

T2 sequence (P05067 672-713 limits assumed): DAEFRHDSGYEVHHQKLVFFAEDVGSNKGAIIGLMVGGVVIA
T1 sequence (P05067 672-713 limits assumed): as above
T3 sequence (P05067 672-713 limits assumed): as above

By Kd is commonly meant the constant that tells how readily two partners part at equilibrium. Take `CCOc1cccc(C=Cc2cc(C)c3n2[B-](F)(F)[N+]2=C(CCC(=O)OCC(Cl)(Cl)Cl)C=CC2=C3)c1O` [BD-Oligo]: the Kd at Aβ oligomers is 0.48 µM.
`CCN(CC)c1ccc(/C=C/C2=[O+][B-](F)(F)OC(/C=C/c3ccc(N(CC)CC)nc3)=C2CCCOc2c(C)cccc2C)cn1` [CRANAD-102]: the Kd on Aβ oligomers is 0.0075 ± 0.01 µM.
For the molecule `COCCOCCn1c2ccc(F)cc2c2cc(/C=C/c3cc[n+](CCO)c4ccccc34)ccc21` [F-SLOH], the Kd on Aβ oligomers is 0.66 µM.
The term logD denotes the decadic logarithm of the distribution of all forms, ionised or not, between an organic phase and buffer at a given pH. A higher logD goes with higher lipophilicity. What is called viability is a per cent measure of how many cells are alive, often set against a control. In the case of `COc1cc(-c2ccc(/C=C/c3ccc(N(C)C)cc3)s2)cc(CN2CCN(C)CCN(C)CC2)c1O` [ZY-12-OMe], the logD in data set [1] stood at 1.17 ± 0.026. Besides, the Kd on Aβ42 fibrils (10 mM PBS pH 7.4, one site-specific binding model, read-out: Kd, Fibrils) amounted to 0.39 µM; on Aβ42 oligomers (Aβ42 oligomers, 10 mM PBS pH 7.4, one site-specific binding model), 0.32 µM. For the same molecule, the “binding ratio, Fibrils” value on Aβ42 fibrils (from cross point between plateau and initial slope) was found to be 8.5. For the same molecule, the “binding ratio, Oligomers” value at Aβ42 oligomers (Aβ42 oligomers, from cross point between plateau and initial slope) is 10.2. Moreover, the “binding preference oligomers vs fibrils (from Kd values)” value at Aβ42 oligomers (lower Kd for Aβ oligomers than Aβ fibrils) is “higher binding affinity to oligomers over fibrils”. The viability at 40 h, 5 µM in data set [2] (at 5 μM) is more than 75%. Also, the viability at 40 h, 10 µM in data set [2] (at 10 μM) was less than 50%. In addition, the “cytotoxicity (in words)” value in data set [3] is on record as “higher cytotoxicity than others”. Moreover, the “Pearson's correlation coefficient R, colocalization with Congo Red” value in data set [4] was determined as 0.77.
